Results reported in article PMC5137965 (Future Science OA, 2016).

What was measured:
[1] = Stock and working solution stability; assay type: physicochemical; settings: for Short-term stability, %Stability: 8.46 h at room temperature; for Stock solution stability, %Stability: 21 days, stock solutions in methanol stored at refrigerator temperature 1–10°C; for working solutions found stable for: room temperature
Experimental: Separate stock solutions were used to prepare calibration curve (CC) standards and quality (QC) control samples. The prepared stock solutions were protected from light and stored in refrigerator between 1–10°C until use. A fresh working solution of IS (1500.00 ng/ml) was prepared everyday by taking appropriate dilution of the stock solution in methanol:water (50:50 v/v).
Stock solution stability of both analyte and internal standard was carried out for 21 days at refrigerated temperature (1–10°C). Short-term stability both analyte and internal standard was carried out for 8.46 h at room temperature.

[2] = Blood stability (sample collection process stability) at room temperature; assay type: in vitro ADME, human; settings: 2.45 h at room temperature
[3] = Stability of spiked human plasma QC samples (bench top, freeze-thaw, autosampler, long-term); assay type: in vitro ADME; settings: for Auto sampler stability (100.87 h), %Nominal, stability QC samples: processed samples
[4] = cited from earlier work
[5] = human plasma, low concentration QC

SMILES	Short-term stability, %Stability [1] [%]	Stock solution stability, %Stability [1] [%]	working solutions found stable for [1] [h]	%Stability ([2]; HQC) [%]	%Stability ([2]; LQC) [%]	processed samples stable in auto sampler for ([3]; at 10°C) [h]	Bench top stability during extraction (9.60 h), %Nominal, stability QC samples ([3]; high concentration QC) [%]	bench top stability in matrix ([3]; human plasma, 6.15 h) [%]	comparative freeze-thaw stability at the end of third freeze and thaw cycle ([3]; human plasma, below -15°C and below -50°C) [%]	Freeze thaw stability (three freeze thaw cycles, below -50°C), %Nominal, stability QC samples ([3]; human plasma, high concentration QC) [%]	Bench top stability in matrix (6.15 h), %Nominal, stability QC samples [3, 5] [%]	Freeze thaw stability (three freeze thaw cycles, below -15°C), %Nominal, stability QC samples [3, 5] [%]	Freeze thaw stability (three freeze thaw cycles, below -50°C), %Nominal, stability QC samples [3, 5] [%]	Bench top stability during extraction (9.60 h), %Nominal, stability QC samples ([3]; low concentration QC) [%]	Auto sampler stability (100.87 h), %Nominal, stability QC samples ([3]; high concentration QC) [%]	Auto sampler stability (100.87 h), %Nominal, stability QC samples ([3]; low concentration QC) [%]	stock solution found stable for ([1]; stored in refrigerator between 1 and 10°C) [days]	permeability ([4]; inferred from almost complete oral absorption)	Tmax ([4]; oral) [h]
[2H]c1c([2H])c(C(=O)Nc2ccc(C)c(Nc3nccc(-c4cccnc4)n3)c2)c([2H])c([2H])c1CN1CCN(C)CC1 [imatinib-D4]	100.96	99.15	16	–	–	–	–	–	–	–	–	–	–	–	–	–	–	–	–
Cc1ccc(NC(=O)c2ccc(CN3CCN(C)CC3)cc2)cc1Nc1nccc(-c2cccnc2)n1 [imatinib]	101.88	101.63	16	99.27	100.72	100.87	98.96	97.75 to 100.23	97.45 to 101.41	102.3	96.03	97.16	97.03	94.80	102.61	98.34	21	high permeability	2 to 4
